{"source": "patent US20240197687A1", "about": "“METHODS OF TREATING NEUROINFLAMMATION AND INHIBITING MONOAMINE OXIDASE-A AND RESTORING/UPREGULATING/INCREASING IL-13 AND AND PGC-1 BY ADMINISTERING ORAL DOSAGE FORM CONTAINING MICRONIZED AND NONMICRONIZED PARTICULATE METAXALONE, ALGINIC ACID AND PROPYLENE GLYCOL ALGINATE” (Primus Pharmaceuticals, Inc., priority 2022, published 2024)", "key": {"HMC3 microglial cells": {"tested_on": "HMC3 microglial cells", "test": "Western blot protein levels in IL-1β-stimulated HMC3 cells", "format": "cell-based, Human", "details": "metaxalone 10, 20, 40 μg/mL, p<0.0001 vs. IL-1β", "description": "Western Blot Analysis. HMC3 cells were homogenized in RIPA buffer (25 mM Tris/HCl, pH 7.4; 1.0 mM EGTA; and 1.0 mM EDTA) with 1% of NP40, 0.5% of phenyl methylsulfonyl fluoride (PMSF), aprotinin, and leupeptin and pepstatin (10 μg/mL each) to perform protein extraction. Lysates were centrifuged at 15,000×g for 15 min at 4° C. and the supernatant was collected for protein determination using a specific kit (Bio-Rad DC; Bio-Rad, Richmond, CA, USA). Samples were denatured in a reducing buffer (62 mM Tris pH 6.8, 10% glycerol, 2% SDS, 5% β-mercaptoethanol, and 0.003% bromophenol blue) and proteins were separated by electrophoresis on SDS polyacrylamide gels. Following electrophoresis, samples were transferred onto a PVDF membrane (Amersham, Little Chalfont, UK) in a transfer buffer (39 mM glycine, 48 mM Tris pH 8.3, and 20% methanol) at 200 mA for 1 h. The obtained membranes were incubated with 5% non-fat dry milk in TBS/0.1% Tween for 1 h at room temperature, washed 3 times in TBS/0.1% Tween, and incubated with primary antibodies to detect pNF-κB, PPARγ, PGC-1α (Cell Signaling, Danvers, MA, USA), NRF-2, and MAO-A (Abcam, Cambridge, UK), diluted in TBS/0.1% Tween overnight at 4° C. The day after, following 3 washes with TBS/0.1% Tween, membranes were incubated with secondary peroxidase-conjugated goat anti-mouse and anti-rabbit antibodies (KPL, Gaithersburg, MD, USA) for 1 h at room temperature. After washing, membranes were analyzed by the enhanced chemiluminescence system (LumiGlo reserve; Seracare, Milford, MA, USA). The protein signal was detected and quantified by scanning densitometry using a bio-image analysis system (C-DiGit, Li-cor, Lincoln, NE, USA). The results were expressed as relative integrated intensity and β-actin (Cell Signaling, Danvers, MA, USA) was used to confirm equal protein loading. (See, […]. et al. β-Caryophyllene Inhibits Cell Proliferation through a Direct Modulation of CB2 Receptors in Glioblastoma Cells. Cancers 2020, 12, 1038)."}, "[1]": {"tested_on": "CYP1A2, CYP2B6, CYP2C9, CYP2C19, CYP2D6, CYP2E1, CYP3A", "details": "cited from earlier work"}, "HMC3 cells": {"tested_on": "HMC3 cells", "test": "Malonaldehyde (MDA) assay, lipid peroxidation in HMC3 cells", "format": "cell-based, Human", "details": "IL-1β-stimulated HMC3 cells; metaxalone 10, 20, 40 μg/mL; p<0.0001 vs. IL-1β", "description": "Malonaldehyde Assay. Metaxalone antioxidant effects were examined in HMC3 cells by measuring malonaldehyde (MDA) levels as a marker of lipid peroxidation, as previously described in detail. (See, Ceravolo, I. Et al., Health Potential of Aloe vera against Oxidative Stress Induced Corneal Damage: An “In Vitro” Study. Antioxidants 2021, 10, 318)."}}, "data": [{"smiles": "Cc1cc(C)cc(OCC2CNC(=O)O2)c1", "note": "(centres unmarked) [metaxalone, 5-[(3,5-dimethylphenoxy)methyl]-2-oxazolidinone]", "values": [{"measurement": "NRF-2 protein levels", "setting": "HMC3 microglial cells; dose-dependent", "value": "significantly increased"}, {"measurement": "PGC-1α protein expression", "setting": "HMC3 microglial cells", "value": "stimulated"}, {"measurement": "PPARγ protein expression", "setting": "HMC3 microglial cells", "value": "stimulated"}, {"measurement": "p-NF-κB protein levels", "setting": "HMC3 microglial cells", "value": "blunted the increase"}, {"measurement": "CYP induction", "setting": "[1]", "value": "inducer of CYP1A2 and CYP3A4"}, {"measurement": "CYP inhibition", "setting": "[1]", "value": "inhibitor of CYP1A2, CYP2B6, CYP2C9, CYP2C19, CYP2D6, CYP2E1, and CYP3A"}, {"measurement": "CYP substrate status", "setting": "[1]", "value": "substrate of CYP1A2 and CYP2C19"}, {"measurement": "MDA levels", "setting": "HMC3 cells", "value": "significant reduction"}]}]}
